Measurements taken from paper PMC11500415, “Chemical inhibition of stomatal differentiation by perturbation of the master-regulatory bHLH heterodimer via an ACT-Like domain” (Nature Communications, 2024).
Where “and” joins values, the source holds several entries; their conditions need not be identical. Equal entries are not always repeated. Entries after “also recorded” stand apart in the source; their conditions may differ.

Experiments:
[1] = tested on: Commelina benghalensis stomatal opening induced by light; test: Measurement of stomatal opening; assay type: in vivo; conditions: 50 µM; light 3 h (Supplementary Fig. 1)
Method: The experiments were performed as described previously[30],[68]. Briefly, Stomidazolone or ABA were added to a multi-well plate with basal buffer [5 mM MES/bistrispropane (pH 6.5), 50 mM KCl, and 0.1 mM CaCl2] to be diluted to a final concentration of 50 or 20 µM, respectively. C. benghalensis plants were incubated in the dark overnight; then, 4 mm diameter leaf discs were excised from fully expanded leaves using a hole punch (Biopsy Punch, Kai Medical). Samples were immersed in a basal buffer containing compounds for 30 min before being exposed to light (150 µmol m^−2 s^−1 red light and 50 µmol m^−2 s^−1 blue light) for 3 h. The stomatal apertures were observed using a stereoscopic microscope (BX43; Olympus). The microscopic images were acquired with a charge-coupled device (CCD) camera (DP27; Olympus), followed by autofocus image processing using cellSens standard software (Olympus). Measurement of stomatal apertures of C. benghalensis was performed by using an automation program, DeepStomata[69].

[2] = tested on: mute-2 seedlings expressing MUTEpro::MUTE-GFP, MUTEpro::MUTEE162A_E163A-GFP or MUTEpro::MUTER133A_R134A-GFP; test: Stomidazolone resistance of mute-2 seedlings expressing engineered MUTE-GFP; assay type: in vivo, Arabidopsis
Method: Arabidopsis accession Columbia (Col-0) was used as wild-type. […] Their genotype and transcript reduction were confirmed. The presence of transgenes/mutant alleles were confirmed by genotyping. For liquid culture with Stomidazolone (AYSJ929, compound 3), the analogs (AYSJ1059 (compound 5) and AYSJ1061 (compound 6)), degraded compound lzx103 (compound 4), and SIM3* (compound 7), all compounds were dissolved in dimethyl sulfoxide (DMSO, Molecular biology grade, Fujifilm Wako, Japan 046-21981), Col-0 seeds were sown in 96-well plates (TL5003; True Line) containing 95 μL of 1/2 MS media containing 0.5% sucrose with rotary shaking at 140 rpm under continuous light at 22 °C. Five μL of compounds were dissolved in DMSO at 10 mM and diluted with liquid 1/2 MS media to 1 mM and added on 1-day-old seedlings (final concentration, 50 μM). Seedlings were incubated for 8 days, and at day 9 seedling abaxial cotyledons were observed through confocal microscopy. For liquid culture of scrm-D_S343 and scrm-D_S423, 1/2 MS liquid media without sucrose was used. For the solid culture, 0, 20, 50 or 100 μM Stomidazolone were solidified with low-melting agarose (5805S, PrimeGelTM Agarose LMT 1-20 K, TAKARA Bio). Briefly, 1/2 MS salt, 0.5% sucrose, and 0.8% low melting agarose were mixed in water and autoclaved. After cooling the medium at around 30 °C, Stomidazolone (500x, dissolved in DMSO) was added and poured into 90 mm petri dishes (Asnol Petri Dish JP φ90 x 15 mm, 3-1491-01, AS ONE). Col-0 seeds were sown on Stomidazolone-containing 1/2 MS agarose media and grown under continuous light for 9 days.
The following constructs for transgenic plants were generated in this study: MUTEpro::MUTE-GFP (pAH11), MUTEpro::MUTEE162AE163A-GFP (pHS133), MUTEpro::MUTER133AR134A-GFP (pHS134). The original MUTEpro::MUTE-GFP construct (pLJP155) was generated via a different cloning strategy with different antibiotics selection. We therefore re-generated the wild-type Three-way Gateway version of MUTEpro::MUTE-GFP (pAH11) as a control. MUTE genomic coding construct without stop codon (pAR205) and MUTE promoter construct (pAR202) were subjected to the Gateway reaction with R4pGWB504[56]. The wild-type MUTE-GFP lines with the identical R4pGWB504 backbone enable a proper comparison of phenotypic complementation. The mutant versions of MUTE constructs were generated in the same way after site-directed mutagenesis using Q5 Site-directed mutagenesis kit (NEB) and subjected to the Three-Way Gateway reaction after sequence confirmation. The constructs were then transformed into the Agrobacterium strain GV3101 and floral dipped into mute-2/+ plants. To construct CaMV35S::H2B-mScarlet-I3/pPZP211 (DKv1400), 35S promoter (35Sp::RFP-CenH3 with DKp665-DKp1254)[57], H2B-(SGGGG)2 linker (from DKv1200[58] with DKp2412-DKp2599), mScarlet-I3 (from codon optimized synthetic DNA for A. thaliana), Nos terminator (from DKv1200 with DKp1251-DKp2598) were amplified using KOD one polymerase (TOYOBO). The PCR products were assembled into BamHI/EcoRI-digested pPZP211[59] using the NEBuilder HiFi DNA Assembly (NEB). For detailed lists of oligo DNA and plasmid information, see Tables S5 and S6, respectively.
For quantitative analysis of the abaxial leaf epidermis, confocal images were taken on the days after germination as indicated in the Figure legends. Preparation of images was done as described previously[32],[70]. For counting epidermal cell types, stomatal density, stomatal precursor cells (meristemoids), total stomata-lineage cells (stomata and meristemoids) were calculated by counting cell types in an area of 0.4 mm^2 (0.63 mm × 0.63 mm) and plotted as per mm^2. A series of Z-stack confocal images was obtained to obtain images covering the epidermis and capturing GFP/YFP signal from the reporter lines. The area and the number of epidermal cells were quantified by using FIJI-ImageJ. Statistical analyses were performed using R ver. 4.0.2. […]

[3] = line AH11 Ln5, 20 μM Stomidazolone, cotyledon abaxial epidermis, individual seedlings
[4] = line HS133 Ln26, 20 μM Stomidazolone, cotyledon abaxial epidermis, individual seedlings
[5] = line HS134 Ln26, 20 μM Stomidazolone, cotyledon abaxial epidermis, individual seedlings
[6] = transgenic line AH11 Ln25, cotyledon abaxial epidermis, 20 μM Stomidazolone, individual seedlings
[7] = transgenic line HS133 Ln19, cotyledon abaxial epidermis, 20 μM Stomidazolone, individual seedlings
[8] = transgenic line HS134 Ln23, cotyledon abaxial epidermis, 20 μM Stomidazolone, individual seedlings

With `O=C1C(c2ccccc2)=NC(NS(=O)(=O)c2ccccc2)(c2ccccc2)N1S(=O)(=O)c1ccccc1` (stereo not drawn) [Stomidazolone] the “effect on stomatal movement (in words)” value [1] was “did not exhibit any discernable effects; also recorded: does not affect”, the “effect on numbers of stomata and meristemoids (in words)” value ([2]; 20 μM, eight days, MUTEpro::MUTEE162A_E163A-GFP and MUTEpro::MUTER133A_R134A-GFP in mute-2) was “did not significantly affect the numbers of stomata and meristemoids” and the “effect on number of stomata (in words)” value ([2]; 20 μM, eight days, control MUTEpro::MUTE-GFP mute-2) was “significantly reduced the number of stomata”. For the same compound, the Meristemoid density [2, 3] was 0 per mm2 and 2 per mm2 and 5 per mm2, the “Stomata Total density” value [2, 3] was 165 per mm2 and 160 per mm2 and 190 per mm2 and 197 per mm2 and 136 per mm2 and 163 per mm2 and 180 per mm2 and the “total (stomata and meristemoids) density” value [2, 3] was 165 per mm2 and 163 per mm2 and 192 per mm2 and 199 per mm2 and 141 per mm2 and 182 per mm2. The Meristemoid density [2, 4] was 2 per mm2 and 0 per mm2 and 5 per mm2, the “Stomata Total density” value [2, 4] was 279 per mm2 and 170 per mm2 and 177 per mm2 and 226 per mm2 and 425 per mm2 and 199 per mm2 and the “total (stomata and meristemoids) density” value [2, 4] was 282 per mm2 and 170 per mm2 and 180 per mm2 and 177 per mm2 and 226 per mm2 and 425 per mm2 and 182 per mm2 and 202 per mm2. The Meristemoid density [2, 5] was 0 per mm2 and 7 per mm2 and 29 per mm2 and 5 per mm2, the Stomata density [2, 5] was 279 per mm2 and 309 per mm2 and 190 per mm2 and 194 per mm2 and 272 per mm2 and 294 per mm2 and 367 per mm2 and 304 per mm2 and the “total (stomata and meristemoids) density” value [2, 5] was 279 per mm2 and 316 per mm2 and 197 per mm2 and 224 per mm2 and 272 per mm2 and 294 per mm2 and 367 per mm2 and 309 per mm2. For the same compound, the Meristemoid density [2, 6] was 0 per mm2 and 5 per mm2 and 2 per mm2, the stomatal density [2, 6] was 197 per mm2 and 216 per mm2 and 250 per mm2 and 287 per mm2 and 219 per mm2 and 182 per mm2 and 226 per mm2 and the “total (stomata and meristemoids) density” value [2, 6] was 197 per mm2 and 221 per mm2 and 253 per mm2 and 287 per mm2 and 219 per mm2 and 216 per mm2 and 182 per mm2 and 226 per mm2. The Meristemoid density [2, 7] was 0 per mm2 and 5 per mm2 and 2 per mm2 and 17 per mm2, the stomatal density [2, 7] was 267 per mm2 and 442 per mm2 and 316 per mm2 and 250 per mm2 and 209 per mm2 and 224 per mm2 and 437 per mm2 and 294 per mm2 and the “total (stomata and meristemoids) density” value [2, 7] was 267 per mm2 and 442 per mm2 and 321 per mm2 and 255 per mm2 and 209 per mm2 and 228 per mm2 and 440 per mm2 and 311 per mm2. The Meristemoid density [2, 8] was 0 per mm2 and 5 per mm2, the “stomatal density (Stomata Total)” value [2, 8] was 345 per mm2 and 221 per mm2 and 180 per mm2 and 267 per mm2 and 479 per mm2 and 316 per mm2 and 207 per mm2 and 199 per mm2 and the “total (stomata and meristemoids) density” value [2, 8] was 345 per mm2 and 221 per mm2 and 185 per mm2 and 267 per mm2 and 479 per mm2 and 316 per mm2 and 211 per mm2 and 199 per mm2.
